From patent US20060106099A1, “Novel inhibitors of ubiquitin isopeptidases” (priority 2002, published 2006)

Key:
RKO cells = assay: MTT cell viability assay, RKO cells; details: for cell death in RKO compared with RKO-E6 cells: 48 h, MTT, isogenic pair
Description: Cell viability was measured with MTT reagent as described in materials and methods.
Cell viability was detected by the MTT assay. Briefly, 1×10^5 cells were incubated per well of a sterile, 96-well assay plate with 0-60 μM of test compounds for 48 hours. MTT reagent was added to each well, final concentration of 0.5 mg/mL, and incubated for an additional 3 hours. The media was aspirated and remaining MTT reagent from each well and added 100 μL of HCl:isopropanol (1:24). The absorbance of each sample was measured at 405 nm.

p53 = p53 accumulation, ratio RKO-E6 cells/RKO cells (immunoblot, densitometry); type: cell-based, human; details: 6 h; etoposide 50 μM, MG115, NSC-302979, DBA 20 μM, others 60 μM
In short: (§1)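 RKO-E6 cells exposed at 37° C for 6, 12 or 24 h to compound concentrations giving 80% cell death at 48 h; for p53, RKO and RKO-E6 cells treated 6 h. Lysates (12.5 μg protein) immunoblotted for ubiquitin or p53 with ECL detection; p53 quantified by densitometry as RKO-E6/RKO ratio.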

ubiquitin isopeptidases [1] = assay: Ubiquitin isopeptidase activity, z-LRGG-AMC substrate, lysates of treated RKO and HCT 116 cells; type: cell-based, human; details: cells treated 6, 20 or 60 μM, 12 h
In short: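 RKO and HCT 116 cells were treated 12 h at 37° C with 6, 20 or 60 μM compound. Lysates at 0.5 mg/mL were pre-incubated with 30 μM MG115 (30 min, 4° C) to block proteasome, then given z-LRGG-AMC for 3 h at 37° C. Cleaved AMC was read fluorometrically.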

RKO-E6 cells [2] = test system: RKO-E6 cells
[3] = test system: cell lines with mutant/deleted p53; details: mean of 41-42 cell lines with mutant/deleted p53; read-out: Mutant p53 Mean LC50; cited from earlier work
[4] = test system: polyubiquitin conjugates in RKO-E6 cells; assay: Accumulation of polyubiquitin in RKO-E6 cells (immunoblot); type: cell-based, human; details: EC80 or 60 μM, 6-24 h
In short: as §1

ubiquitin isopeptidases [5] = assay: Ubiquitin isopeptidase activity, Ub-PEST substrate, lysates of treated RKO and HCT 116 cells; type: cell-based, human; details: cells treated 6, 20 or 60 μM, 12 h
In short: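 RKO and HCT 116 cells (6×10^5) were treated with 0–60 μM compound for 12 h at 37 °C, then lysed in HEPES/EDTA/CHAPS/5 mM ATP, pH 7.5. Lysates at 0.3 mg/mL protein were incubated with 50 μg/mL Ub-PEST for 45 min at 25 °C. Released 8.5 kDa ubiquitin was quantified by anti-ubiquitin western blot densitometry relative to vehicle (100%).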

RKO-E6 cells [6] = assay: MTT cell viability assay, RKO-E6 cells; details: cell viability assay at 48 h, RKO-E6 cells
HCT 116 +/+ cells = assay: MTT cell viability assay, HCT 116 p53 +/+ cells; details: 48 h, MTT; for cell death in HCT 116 +/+ compared with HCT 116 −/− cells: isogenic pair

Row | SMILES | cell death in RKO compared with RKO-E6 cells (RKO cells) | ratio of p53 protein [RKO-E6 cells/RKO cells] (p53) | inhibition of z-LRGG-AMC hydrolysis by ubiquitin isopeptidases (ubiquitin isopeptidases [1]) | EC50 (RKO-E6 cells [2]) [µM] | CC50 [3] [µM] | cellular accumulation of polyubiquitin conjugates [4] | inhibition of isopeptidase cleavage of Ub-PEST (ubiquitin isopeptidases [5]) | EC80, concentration that gave 80% cell death (RKO-E6 cells [6]) [µM] | cell death in HCT 116 +/+ compared with HCT 116 −/− cells (HCT 116 +/+ cells) | EC50 (HCT 116 +/+ cells; read-out: Cytotoxic Potency (EC50) HCT +/+) [µM] | EC50 (RKO cells; read-out: EC50 in RKO cell lines, prostaglandins for comparison, comparison values in the text) [µM]
1 | C=C1C(=O)C2=CC1CCC(=O)C1(C)CCC(OC(C)=O)C(C)(C)C1CC2O (stereo not shown) [NSC-302979, shikoccin] | caused cell death with equal potency and efficacy | approached unity | inhibited ubiquitin isopeptidase activity | 1.4 ± 0.1 | 66 | protein species with polyubiquitin conjugation accumulated in cells | inhibited isopeptidase activity in a concentration dependent manner | 3.5 | caused cell death with equal potency | 2.7 ± 0.2 | –
2 | CCCCC[C@H](O)C/C=C1/C(=O)C=C[C@@H]1C/C=C\CCCC(=O)O [Δ12-PGJ2, Δ12-prostaglandin J2] | caused cell death with equal potency and efficacy | approached unity | inhibited ubiquitin isopeptidase activity | 9.2 ± 1 | – | protein species with polyubiquitin conjugation accumulated in cells | inhibited isopeptidase activity in a concentration dependent manner | 13.2 | caused cell death with equal potency | – | 9
